Structures can show the parent of a compound that is named as a salt. Where two headings read alike, the source gives them in different places.
Key:
[1] = system: acid secretion caused by 4-methylhistamine dihydrochloride; assay: Heidenhain test (gastric pouch dogs, inhibition of 4-methylhistamine-stimulated acid secretion); format: in vivo, dog; conditions: 50% inhibition of acid secretion caused by 4-methylhistamine dihydrochloride infusion; for ED50: Canis lupus familiaris, po, read-out: Heidenhain test ED 50
Description: The two experimental procedures described hereinafter were used to determine the gastric acid secretion-inhibiting activity: Heidenhain test A part of the stomach fundus of female and male dogs is separated from the remaining stomach in the form of a pouch according to the […] technique [described by Rudick et al. in J. Surgical Research 7, 383-398 (1967)]. In the pouch there is fitted a steel cannula which is conducted externally through the abdominal wall. The secretion experiments are commenced after about 6 weeks. Before each experiment the animals receive no food for 18 hours, but receive water ad libitum. They are conscious during the experiment. A saphenous vein is cannulated for an infusion of 4-methylhistamine dihydrochloride, a selective stimulator of the histamine H2 -receptors. An appropriate infusion rate of the 4-methylhistamine dihydrochloride ([…], intravenously) is ascertained for each animal in preliminary experiments. During the entire main experiment the gastric secretion is stimulated by the infusion of 4-methylhistamine dihydrochloride, and 15 minute fractions of the gastric juice are collected continuously. As soon as volume and pH of these fractions show constant values, the test substances are administered orally. The ED 50 is defined as that dosage of test substance which brings about a 50% inhibition of the acid secretion caused by 4-methylhistamine dihydrochloride in the treated animals compared with the controls.

[2] = system: gastric acid secretion; assay: Shay test (pylorus-ligated rats, gastric acid secretion-inhibiting activity); format: in vivo, rat; conditions: female rats, i.d.; for ED50: Rattus norvegicus, 4 h
Description: The two experimental procedures described hereinafter were used to determine the gastric acid secretion-inhibiting activity: Shay test The pylorus of female rats, which had received no food for 24 hours but which had received water ad libitum, is ligatured under slight ether narcosis in accordance with Shay et al. [Gastroenterology 5, 43 (1945)]. Immediately thereafter the substances to be tested are administered intraduodenally to the animals. Four (4) hours later the animals are killed. The volume and the acidity of their gastric juice are determined and the values obtained are compared with those of control animals which were treated similarly, but had received no test substance. The ED 50 is defined as the dosage of test substance which brings about a 50% reduction of volume or acidity of the gastric juice in the treated animals compared with the control animals.

[3] = system: ulcers of the duodenum; assay: Anti-ulcer activity (ulcers of the duodenum induced by 4-methylhistamine and carbachol in guinea pigs); format: in vivo, guinea pig; conditions: i.g.; for ED50: Cavia porcellus, po, read-out: Anti-ulcer ED 50
Description: Before the beginning of the testing a group of 10 guinea pigs, body weight 280 to 320 g, of the same sex receives no food for 24 hours, but receives water ad libitum. Various doses of the test substance or of the appropriate vehicle (control) are administered intragastrically. The test is repeated on different days with other groups of guinea pigs in order to avoid the influence of daily variations.

[4] = Preliminary toxicity in the mouse; conditions: in vivo, po, read-out: Prel. tox mouse
Description: Representative compounds of formula I of the invention were tested for their gastric acid secretion-inhibiting activity, for their anti-ulcer activity, as well as for their toxicity.
In Table I, which follows, the names of the compounds tested as well as the results of the testing for their gastric secretion-inhibiting activity, for their anti-ulcer activity and for their toxicity are given.

[5] = 50% reduction of acidity of gastric juice, read-out: Shay test ED 50 Acid
[6] = 50% reduction of volume of gastric juice, read-out: Shay test ED 50 Vol

Row | Compound | Heidenhain test ED 50 ([1]; p.o., dihydrochloride) | Shay test ED 50 Acid ([2]; 4 hours, 50% reduction of acidity of gastric juice, dihydrochloride, 240 min) | Shay test ED 50 Vol ([2]; 4 hours, 50% reduction of volume of gastric juice, dihydrochloride, 240 min) | Anti-ulcer ED 50 ([3]; dihydrochloride) | ED50 [1] | ED50 [2, 5] | ED50 [2, 6] | ED50 [3] | LD50 [4]
1 | Cc1ccc(CSc2nc3cc4c(cc3[nH]2)OCO4)nc1 [6-[[(5-Methyl-2-pyridyl)-methyl]thio]-5H--1,3-dioxolo-(4,5-f)benzimidazole dihydrochloride] | 2.1 mg/kg | 65 mg/kg | 75 mg/kg | 25 mg/kg | – | – | – | – | –
2 | Cc1ccc(C[S+]([O-])c2nc3cc4c(cc3[nH]2)OCO4)nc1 (stereo not shown) [6-[[(5-methyl-2-pyridyl)methyl]sulfinyl]-5H-1,3-dioxolo(4,5-f)-benzimidazole] | – | – | – | – | 2.3 mg/kg | 28 mg/kg | 65 mg/kg | 14 mg/kg | 5000 mg/kg
3 | Cc1ccc(CSc2nc3cc4c(cc3[nH]2)OCO4)nc1 [6-[[(5-methyl-2-pyridyl)methyl]thio]-5H-1,3-dioxolo(4,5-f)benzimidazole] | – | – | – | – | 1.8 mg/kg | 100 mg/kg | 100 mg/kg | 18 mg/kg | –
4 | c1ccc(CSc2nc3cc4c(cc3[nH]2)OCO4)nc1 [6-[(2-Pyridylmethyl)thio]-5H-1,3-dioxolo(4,5-f)-benzimidazole.2HCl] | – | – | – | – | 2.6 mg/kg | 29 mg/kg | 35 mg/kg | 17 mg/kg | 1250 mg/kg
5 | Cc1ccc(CSc2nc3cc4c(cc3[nH]2)CCC4)nc1.Cl.Cl [1,5,6,7-tetrahydro-2-[[(5-methyl-2-pyridyl)methyl]thio]indeno(5,6-d)imidazole dihydrochloride] | – | – | – | – | 3.6 mg/kg | 28 mg/kg | 50 mg/kg | 34 mg/kg | 1250 mg/kg
6 | CC1(C)C(=O)C(C)(C)c2cc3[nH]c(SCc4ccccn4)nc3cc21 [5,7-dihydro-5,5,7,7-tetramethyl-2-[(2-pyridylmethyl)thio]indeno(5,6-d)imidazol-6(1H)-one] | – | – | – | – | 5.5 mg/kg | 9 mg/kg | 20 mg/kg | 32 mg/kg | 2500 mg/kg
